Laboratory results: ChEMBL document CHEMBL3102772, “New natural products as new leads for antibacterial drug discovery” (Bioorg Med Chem Lett, 2014)
Converted amounts (≈) assume the structure as drawn. Starred links: 1 amine or outer side, 2 acyl side, 3 side chain; linkers in the order of their positions; H or OH if unused. Positions of bridges follow the written chain, without caps; N, C: chain ends. Non-standard residues stand in square brackets, D forms with d. Residues, ends and D or L forms follow the SMILES beside them. X1 = CC(C)=CCc1ccc(Cl)c2[nH]cc(CC(N[*:1])C(=O)[*:2])c12; Trp(7-Cl) = N[CH](Cc1c[nH]c2c(Cl)cccc12)C(=O)O; Malonyl = O=C(CC(=O)[*:2])[*:1]; Cya = N[CH](CS(=O)(=O)O)C(=O)O; Dab = NCC[C@H](N)C(=O)O

Columns and labels:
Staphylococcus aureus [1] = assay: Antibacterial activity against methicillin sensitive Staphylococcus aureus MB2865 assessed as growth inhibition after 20 hrs by agar dilution method; assay type: functional; conditions: MB2865, 20 h
Staphylococcus aureus [2] = assay: Antibacterial activity against methicillin resistant Staphylococcus aureus COL MB5393 assessed as growth inhibition after 20 hrs by agar dilution method; assay type: functional; conditions: COL MB5393, 20 h
Escherichia coli [3] = assay: Antibacterial activity against Escherichia coli MB2884 assessed as growth inhibition after 20 hrs by agar dilution method; assay type: functional; conditions: MB2884, 20 h
Escherichia coli [4] = assay: Antibacterial activity against Escherichia coli MB5746 harboring envA1/TolC efflux pump mutant assessed as growth inhibition after 20 hrs by agar dilution method; assay type: functional; conditions: MB5746, 20 h
Bacillus subtilis = assay: Antibacterial activity against Bacillus subtilis assessed as growth inhibition; assay type: functional
Escherichia coli [5] = assay: Antibacterial activity against Escherichia coli NCTC 10418 assessed as growth inhibition; assay type: functional
Staphylococcus aureus [6] = assay: Antibacterial activity against 10 clinical isolates of methicillin resistant Staphylococcus aureus […] assessed as growth inhibition by broth dilution method; assay type: functional
Pseudomonas aeruginosa [7] = assay: Antibacterial activity against Pseudomonas aeruginosa ATCC 27853 infected in sc dosed mouse septisemia model measured at 1 to 5 hrs; assay type: functional; conditions: ATCC 27853, sc
Pseudomonas aeruginosa [8] = assay: Antibacterial activity against Pseudomonas aeruginosa ATCC 27853 assessed as growth inhibition by microdilution method; assay type: functional
Acinetobacter baumannii = assay: Antibacterial activity against Acinetobacter baumannii clinical isolate assessed as growth inhibition; assay type: functional
HepG2 = assay: Cytotoxicity against human HepG2 cells; assay type: cell-based
Escherichia coli [9] = assay: Antibacterial activity against Escherichia coli clinical isolate assessed as growth inhibition; assay type: functional
[10] = Cytotoxicity against human Fa2N-4 cells; assay type: cell-based
Pseudomonas aeruginosa [11] = assay: Antibacterial activity against Pseudomonas aeruginosa clinical isolate assessed as growth inhibition; assay type: functional
Staphylococcus aureus [12] = assay: Antibacterial activity against Staphylococcus aureus assessed as growth inhibition; assay type: functional
Klebsiella pneumoniae = assay: Antibacterial activity against Klebsiella pneumoniae clinical isolate assessed as growth inhibition; assay type: functional
Pseudomonas aeruginosa [13] = assay: Bactericidal activity against Pseudomonas aeruginosa PA14 after 16 to 20 hrs by agar diffusion assay; assay type: functional
Pseudomonas aeruginosa [14] = assay: Antibacterial activity against Pseudomonas aeruginosa PA14 assessed as growth inhibition after 16 to 20 hrs by agar diffusion assay; assay type: functional, organism-based
Escherichia coli [15] = assay: Antibacterial activity against Escherichia coli SANK 70569 assessed as growth inhibition; assay type: functional
Pseudomonas aeruginosa [16] = assay: Antibacterial activity against Pseudomonas aeruginosa PAS2006 harboring SPase P84S mutant assessed as growth inhibition after 24 hrs by micro-broth dilution method; assay type: functional; conditions: PAS2006, 24 h
[17] = tested on: Staphylococcus epidermidis; assay: Antibacterial activity against wild type Staphylococcus epidermidis RP62A assessed as growth inhibition after 24 hrs by micro-broth dilution method; assay type: functional
[18] = tested on: Staphylococcus epidermidis; assay: Antibacterial activity against Staphylococcus epidermidis PAS9001 harboring SPase S92P mutant assessed as growth inhibition after 24 hrs by micro-broth dilution method; assay type: functional; conditions: PAS9001, 24 h
Staphylococcus aureus [19] = assay: Antibacterial activity against Staphylococcus aureus PAS8001 harboring SPase P29S mutant assessed as growth inhibition after 24 hrs by micro-broth dilution method; assay type: functional; conditions: PAS8001, 24 h
Escherichia coli [20] = assay: Antibacterial activity against Escherichia coli PAS0232 harboring SPase P84S mutant assessed as growth inhibition after 24 hrs by micro-broth dilution method; assay type: functional; conditions: PAS0232, 24 h
[21] = Ratio of MIC for Staphylococcus epidermidis PAS9001 harboring SPase S92P mutant to MIC for wild type Staphylococcus epidermidis RP62A; assay type: functional
Staphylococcus aureus [22] = assay: Antibacterial activity against 24 clinical isolates of methicillin resistant Staphylococcus aureus […] assessed as growth inhibition by broth dilution method; assay type: functional

C=C1CC[C@@H](O[C@H]2C[C@@](O)([C@H](C)NC(=O)c3[nH]c(C)c(Cl)c3Cl)[C@H](O)[C@@H](C)O2)[C@@H]2C=C[C@H](C)C(/C(O)=C3\C(=O)[C@H](C(C)C)N([C@H]4O[C@H](C)[C@H](OC(N)=O)[C@H](OC(C)=O)[C@@H]4OC)C3=O)[C@@H]12 (stereo partly drawn) [KIBDELOMYCIN] gave an MIC (Staphylococcus aureus [1]) of 2 µg/mL (≈ 2.13 µM), an MIC (Staphylococcus aureus [2]) of 0.5 µg/mL (≈ 0.532 µM) and an MIC (Escherichia coli [3]) of over 64 µg/mL. The MIC (Escherichia coli [4]) was 32 µg/mL (≈ 34 µM).
For C/C(=C\c1ccc(N(C)C)cc1)C(=O)N[C@@H]1[C@H](O)[C@@H](O)[C@H]2OC(OC(C(=O)O)C(O)CO)O[C@H]2[C@@H]1N(C)C (stereo partly drawn), the MIC (Bacillus subtilis) was 70 µg/mL (≈ 130 µM).
CCC[C@@H]1OC(=O)[C@@H](C)C[C@H](C)CCCCC(=O)CCC[C@@H](CC)/C=C/C=C(\COC)CC[C@@H](O)[C@@H](O)C[C@H](O)CNC1=O gave an MIC (Escherichia coli [5]) of 6.25 µg/mL (≈ 10 µM).
CCCC(C)/C=C(/C)C(=O)OC(CCCCCCC/C=C/C(=O)NCCC(=O)NC(CS(=O)(=O)O)C(=O)N(C)C1C(=O)NC(C)C(=O)NC(C(=O)O)Cc2ccc(OS(=O)(=O)O)c(c2)-c2cc1cc(OS(=O)(=O)O)c2O[C@H]1O[C@H](C)[C@@H](O)[C@H](O)[C@@H]1O)CCC(C)C (stereo partly drawn) showed an MIC (Staphylococcus aureus [6]) of 0.5 µg/mL (≈ 0.371 µM).
Work on CC[C@H](C)[C@@H]1NC(=O)[C@H](Cc2c[nH]c3ccccc23)NC(=O)[C@H]([C@@H](C)O)NC(=O)[C@@H]2CCCN2C(=O)[C@@H]2CCCN2C(=O)[C@H](CCN)NC(=O)[C@H](C)NC(=O)[C@H](CCN)NC(=O)[C@H](CCN)NC(=O)[C@H](Cc2c[nH]c3ccccc23)NC(=O)[C@H](CCN)NC(=O)[C@H](CCN)NC(=O)[C@H](CCCCN)NC(=O)[C@H](CCN)NC1=O (cyclo(A[Dab]PPTWI[Dab]K[Dab][Dab]W[Dab][Dab])) yielded an ED50 (Pseudomonas aeruginosa [7]) of 0.25 mg/kg and an MIC (Pseudomonas aeruginosa [8]) of 0.008 µg/mL.
For [C-]#[N+]C(=C)[C@@](Cc1ccc(OC)cc1)([N+]#[C-])C1C[C@@H](OC(=O)CO)CC[C@@H]1O (stereo partly drawn), the MIC (Acinetobacter baumannii) was 0.256 µg/mL (≈ 0.667 µM), the Activity (HepG2) was over 512 µg/mL and the MIC (Escherichia coli [9]) was 0.256 µg/mL (≈ 0.667 µM). It also gave an Activity [10] of over 512 µg/mL, an MIC (Pseudomonas aeruginosa [11]) of 0.256 µg/mL (≈ 0.667 µM) and an MIC (Staphylococcus aureus [12]) of over 128 µg/mL. The MIC (Klebsiella pneumoniae) was 0.256 µg/mL (≈ 0.667 µM).
CCCCCCC(CCCCCC(O)C(N)=O)OC(=O)C1CC=CN1C(=O)c1ccccc1O (stereo not drawn) showed an MBC (Pseudomonas aeruginosa [13]) of 100 µg/mL (≈ 211 µM) and an IC50 (Pseudomonas aeruginosa [14]) of 0.16 µg/mL (≈ 0.337 µM).
For CCCCCC[C@H]1OC(=O)CNC(=O)[C@H]([C@H](C)O)NC(=O)[C@H](CO)NC(=O)[C@H]([C@H](C)CC)NC(=O)[C@H](CC(C)C)N(C)C(=O)[C@@H]1C, the MIC (Escherichia coli [15]) was 12.5 µg/mL (≈ 19.1 µM).
For CCC[C@@H]1OC(=O)[C@@H](C)C[C@H](C)CCCCC(=O)CCC[C@@H](CC)CC/C=C(\COC)CC[C@@H](O)[C@@H](O)C[C@H](O)CNC1=O, the MIC (Escherichia coli [5]) was 3.12 µg/mL (≈ 4.98 µM).
For CCCCCCCCCC[C@H]1OC(=O)CNC(=O)[C@H]([C@H](C)O)NC(=O)[C@H](CO)NC(=O)[C@H]([C@H](C)CC)NC(=O)[C@H](CC(C)C)N(C)C(=O)[C@@H]1C, the MIC (Escherichia coli [15]) was 1.56 µg/mL (≈ 2.19 µM).
CCCCCCCCCCCCCCCC(=O)N(C)[C@H](CO)C(=O)N[C@H](C)C(=O)NCC(=O)N(C)[C@@H]1C(=O)N[C@@H](C)C(=O)N[C@H](C(=O)O)Cc2ccc(O)c(c2)-c2cc1ccc2O [ARYLOMYCIN C16] gave an MIC (Pseudomonas aeruginosa [16]) of 8 µg/mL (≈ 9.08 µM), an MIC [17] of 0.25 µg/mL (≈ 0.284 µM) and an MIC [18] of 8 µg/mL (≈ 9.08 µM). It also gave an MIC (Staphylococcus aureus [19]) of 2 µg/mL (≈ 2.27 µM), an MIC (Escherichia coli [20]) of 4 µg/mL (≈ 4.54 µM) and a Ratio [21] of 32.
CC(C)=CCc1ccc(Cl)c2[nH]cc(CC3NC(=O)C(Cc4c[nH]c5c(Cl)cccc45)NC(=O)C4CCCN4C(=O)C(CS(=O)(=O)O)NC(=O)C(NC(=O)C(NC(=O)C(C)NC(=O)CC(=O)O)C(C)C)COC(=O)C(CO)NC(=O)C(CC(C)C)NC(=O)C(C(C)C)NC3=O)c12 (stereo not drawn) (Malonyl-AVS[Cya]P[Trp(7-Cl)][X1]VLS; ester 3-C; configuration not given here) gave an MIC (Staphylococcus aureus [22]) of 16 µg/mL (≈ 11.4 µM).
